Data as given in patent US11191820B2, “Method for inducing early T memory response with short peptides anti-tumor vaccine” (OSE IMMUNOTHERAPEUTICS, priority 2015, dated 2021).
Read-outs that look alike come from different tables or passages of the source.

Tests used:
advanced NSCLC = settings: cited from earlier work
central memory T cells [1] = experiment: Cultured IFN-γ ELISPOT after 10-day in vitro stimulation of PBMC, phase 1/2 NSCLC trial of OSE-2101; type: in vivo, human; parameters: key to net SFC of vaccine positive CTL responses: —, indicates SFC response did not meet criteria and vaccine response was negative; settings: for Mean SFC / No. Positive Responses: 6 NSCLC patients
Outline: (§1)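 Patient PBMC (pre-treatment, Week 9, Week 18, after s.c. dosing every 3 weeks) were stimulated 10 days with 10 μg/ml of each epitope plus rIL-2 10 U/ml on days 1, 4 and 7. Cells were then tested 20 h with irradiated autologous PBMC and 10 μg/ml vaccine or wild-type peptide. Net SFC per 5×10^4 cells, irrelevant HBV peptide subtracted.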

central memory T cells [2] = experiment: Cultured IFN-γ ELISPOT after 10-day in vitro stimulation of PBMC, phase 1/2 colon cancer trial of OSE-2101; type: in vivo, human; parameters: key to net SFC of vaccine positive CTL responses: —, indicates SFC response did not meet criteria and vaccine response was negative; settings: for Mean SFC: 10 colon patients
Outline: as §1

central memory T cells [3] = experiment: Central memory T cell cultured ELISPOT, phase 2 trial in advanced NSCLC; type: in vivo, human
Outline: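 Patient PBMC were pre-stimulated for 10 days with 10 μg/ml peptide plus rIL2 (10 U/ml, days 1, 4, 7), then replated at 5×10^4/well with irradiated autologous PBMC and 10 μg/ml peptide, and SFC were counted. A response was positive if >5 SFC above, and > mean+2 SD of, the irrelevant HBV epitope, and twofold the pre-vaccination response plus 2 SD.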

Q: Which “median PFS” value (advanced NSCLC; phase 3, second line NSCLC (Bareschino 2011)) does the source give for `Nc1nc2[nH]cc(CCc3ccc(C(=O)N[C@@H](CCC(=O)O)C(=O)O)cc3)c2c(=O)[nH]1` [pemetrexed] here?
A: 2.9 months

Q: Which “Progression-Free Survival (PFS)” value (advanced NSCLC; advanced NSCLC after at least first line failure (Shepherd 2005)) does the source give for `C#Cc1cccc(Nc2ncnc3cc(OCCOC)c(OCCOC)cc23)c1` [Erlotinib] here?
A: 2.2 months

Q: For YLSGADLNL [CEA.605D6 A], which “Mean SFC” value (central memory T cells [1]; Week 9) is on record?
A: 20.7 SFC per 50,000 cells

Q: And the “No. Positive Responses” value (central memory T cells [1]; Week 9)?
A: 1

Q: And the “Mean SFC” value (central memory T cells [1]; Week 18)?
A: 137.5 SFC per 50,000 cells

Q: What about the “No. Positive Responses” value (central memory T cells [1]; Week 18) of the same compound?
A: 2

Q: And the “net SFC of vaccine positive CTL responses” value (shortened to “net SFC”) (central memory T cells [1]; NSCLC patient 201, Week 9)?
A: —

Q: And the “net SFC” value (central memory T cells [1]; NSCLC patient 201, Week 18)?
A: —

Q: And the “net SFC” value (central memory T cells [1]; NSCLC patient 502, Week 9)?
A: —

Q: What about the “net SFC” value (central memory T cells [1]; NSCLC patient 502, Week 18) of the same compound?
A: —

Q: What about the “net SFC” value (central memory T cells [1]; NSCLC patient 504, Week 9) of the same compound?
A: 20.7 SFC per 50,000 cells

Q: And the “net SFC” value (central memory T cells [1]; NSCLC patient 504, Week 18)?
A: 214.3 SFC per 50,000 cells

Q: What about the “net SFC” value (central memory T cells [1]; NSCLC patient 505, Week 9) of the same compound?
A: —

Q: What about the “net SFC” value (central memory T cells [1]; NSCLC patient 505, Week 18) of the same compound?
A: 60.7 SFC per 50,000 cells

Q: And the “net SFC” value (central memory T cells [1]; NSCLC patient 532, Week 9)?
A: —

Q: And the “net SFC” value (central memory T cells [1]; NSCLC patient 532, Week 18)?
A: —

Q: And the “net SFC” value (central memory T cells [1]; NSCLC patient 651, Week 9)?
A: —

Q: And the “net SFC” value (central memory T cells [1]; NSCLC patient 651, Week 18)?
A: —

Q: What about the “Mean SFC” value (central memory T cells [2]; Week 9) of the same compound?
A: 84.2 SFC per 50,000 cells

Q: And the “Mean SFC” value (central memory T cells [2]; Week 18)?
A: 283.3 SFC per 50,000 cells

Q: And the “net SFC” value (central memory T cells [2]; colon patient 551, Week 9)?
A: —

Q: And the “net SFC” value (central memory T cells [2]; colon patient 551, Week 18)?
A: —

Q: What about the “net SFC” value (central memory T cells [2]; colon patient 601, Week 9) of the same compound?
A: 88.3 SFC per 50,000 cells

Q: What about the “net SFC” value (central memory T cells [2]; colon patient 601, Week 18) of the same compound?
A: —

Q: What about the “net SFC” value (central memory T cells [2]; colon patient 602, Week 9) of the same compound?
A: —

Q: And the “net SFC” value (central memory T cells [2]; colon patient 602, Week 18)?
A: —

Q: What about the “net SFC” value (central memory T cells [2]; colon patient 603, Week 9) of the same compound?
A: 114.7 SFC per 50,000 cells

Q: What about the “net SFC” value (central memory T cells [2]; colon patient 603, Week 18) of the same compound?
A: —

Q: And the “net SFC” value (central memory T cells [2]; colon patient 604, Week 9)?
A: 70.0 SFC per 50,000 cells

Q: What about the “net SFC” value (central memory T cells [2]; colon patient 604, Week 18) of the same compound?
A: 413.3 SFC per 50,000 cells

Q: What about the “net SFC” value (central memory T cells [2]; colon patient 605, Week 9) of the same compound?
A: —

Q: And the “net SFC” value (central memory T cells [2]; colon patient 605, Week 18)?
A: —

Q: And the “net SFC” value (central memory T cells [2]; colon patient 606, Week 9)?
A: —

Q: And the “net SFC” value (central memory T cells [2]; colon patient 606, Week 18)?
A: —

Q: What about the “net SFC” value (central memory T cells [2]; colon patient 607, Week 9) of the same compound?
A: 72.7 SFC per 50,000 cells

Q: And the “net SFC” value (central memory T cells [2]; colon patient 607, Week 18)?
A: 414.7 SFC per 50,000 cells

Q: And the “net SFC” value (central memory T cells [2]; colon patient 608, Week 9)?
A: —

Q: What about the “net SFC” value (central memory T cells [2]; colon patient 608, Week 18) of the same compound?
A: —

Q: And the “net SFC” value (central memory T cells [2]; colon patient 609, Week 9)?
A: 75.3 SFC per 50,000 cells

Q: What about the “net SFC” value (central memory T cells [2]; colon patient 609, Week 18) of the same compound?
A: 22.0 SFC per 50,000 cells

Q: What about the “% of patients with positive CTL/central memory T cell response” value (central memory T cells [3]; phase 2, month 9) of the same compound?
A: 14%

Q: And the “patients with positive CTL/central memory T cell response / patients tested” value (central memory T cells [3]; phase 2, month 9)?
A: 1/7

Q: What about the “% of patients with positive CTL/central memory T cell response” value (central memory T cells [3]; phase 2, month 12) of the same compound?
A: 25%

Q: And the “patients with positive CTL/central memory T cell response / patients tested” value (central memory T cells [3]; phase 2, month 12)?
A: 1/4

Q: And the “% of patients with positive CTL/central memory T cell response” value (central memory T cells [3]; phase 2, week 9)?
A: 27%

Q: What about the “patients with positive CTL/central memory T cell response / patients tested” value (central memory T cells [3]; phase 2, week 9) of the same compound?
A: 9/33

Q: What about the “% of patients with positive CTL/central memory T cell response” value (central memory T cells [3]; phase 2, week 18) of the same compound?
A: 31%

Q: And the “patients with positive CTL/central memory T cell response / patients tested” value (central memory T cells [3]; phase 2, week 18)?
A: 10/32

Q: And the “% of patients with positive CTL/central memory T cell response” value (central memory T cells [3]; phase 2, week 30)?
A: 35%

Q: What about the “patients with positive CTL/central memory T cell response / patients tested” value (central memory T cells [3]; phase 2, week 30) of the same compound?
A: 8/23

Q: For nivolumab, which “median PFS” value (advanced NSCLC; phase 3 study in squamous NSCLC (Brahmer 2015)) is on record?
A: 3.5 months
